Results reported in patent US5547951A, “Pyrido[2,3-b][1,4]benzoxazepin (and thiazepin)-6(5H)-ones and -thiones and their use in the prevention or treatment of HIV-1 infection” (Boehringer Ingelheim Pharamceuticals, Inc., priority 1994, dated 1996).
Values after ≈ are worked out from the molar mass of the structure shown.

Molecular target: T1, HIV-1 reverse transcriptase (Human immunodeficiency virus type 1 group M subtype B, UniProt P03367)
T1 construct: Reverse transcriptase enzyme from the LAV strain; made in house; host or cells: E. coli JM109, DNA clone pBRTprtl+ in expression vector pIBI21 (lac promoter)
Test: Reverse Transcriptase (RT) Assay: inhibition of RNA-dependent DNA polymerase activity, cell-free, poly r(C)/oligo d(G) template, 3H-dGTP substrate
Assay type: biochemical, Human Immunodeficiency Virus (HIV-1), LAV strain
Details: @ 10 μg/ml; room temperature, 60 minutes
Source text: Utilizing the Reverse Transcriptase (RT) Assay described below, compounds can be tested for their ability to inhibit the RNA-dependent DNA polymerase activity of HIV RT. Certain specific compounds, described in the Examples which appear below, were so tested. […]
Among the enzymes for which Human Immunodeficiency Virus (HIV-1) encodes is a reverse transcriptase (1), so-named because it transcribes a DNA copy from an RNA template. This activity can be quantitatively measured in a cell-free enzyme assay which has been previously described (2), and is based upon the observation that reverse transcriptase is able to use a synthetic template [poly r(C) primed with oligo d(G)] to transcribe a radio-labelled, acidprecipitable DNA strand utilizing ^3 3H-dGTP as a substrate. […]
a) Preparation of the enzyme
Reverse transcriptase enzyme from the LAV strain of Human Immuno- deficiency Virus (HIV-1) (1) was isolated from the bacterial strain JM109 (3) expressing the DNA clone pBRTprtl+ (2) which is under the control of the lac promotor in the expression vector pIBI21 (4). An overnight culture grown in 2XYT medium (37° C., 225 rpm) (5) supplemented with 100 μg/ml ampicillin for positive selection is inoculated at a 1:40 dilution into M9 medium supplemented with 10μg/ml thiamine, 0.5% casamino acids, and 50 μg/ml ampicillin (5). The culture is incubated (37° C., 225 rpm) until it reaches an 0D540 of 0.3-0.4. At that time the repressor inhibitor IPTG (isopropyl b-D-thiogalactopyranoside) is added to 0.5 mM and incubated for 2 additional hours. Bacteria are pelletted, resuspended in a 50mM Tris, 0.6mM EDTA, 0.375 M NaGl buffer and digested by the addition of lysozyme (1 mg/ml) for 30 minutes on ice. The cells are lysed by the addition to 0.2% NP-40 and brought to 1 M NAGl.
After removal of the insoluble debris by centrifugation, the protein is precipitated by the addition of 3 volumes of saturated aqueous ammonium sulfate. The enzyme is pelleted, resuspended in RT buffer (50 mM Tris pH 7.5, 1 mM EDTA, 5mM DTT, 0.1% NP-40, 0.1M NaCl, and 50% glycerol) and stored at -70° C. for further use. […]
b) Composition of 2X concentrated stock reaction mixture
The 2X concentrated stock reaction mixture is aliquoted and stored at -20° C. The mixture is stable and thawed for use in each assay. This enzyme assay has been adapted to a 96 well microtiter plate system, and has been previously described (6). Tris buffer (50 mM, pH 7.4), vehicle (solvent diluted to match the compound dilution), or compounds in vehicle are dispensed into 96-well microtiter plates (10 μl/well; 3 wells/compound). The HIV RT enzyme is thawed, diluted in 50 mM Tris pH 7.4 so that fifteen μl of diluted enzyme contain 0.001 Unit (one unit is that amount of enzyme to transform 1 micromole of substrate per minute at 25° C.), and 15 μ are dispensed per well. Twenty μl of 0.12-0.5M EDTA are added to the first three wells of the microtiter plate. EDTA thelares the Mg^++ present and prevents reverse transcription. This group serves as background polymerization which is subtracted from all other groups. Twenty-five μl of the 2X reaction mixture are added to all wells and the assay is allowed to incubate at room temperature for 60 minutes. The assay is terminated by precipitating the DNA in each well with 50 μl of 10% trichloracetic acid (TCA) in 1% sodium pyrophosphate. The microtiter plate is incubated for 15 minutes at 4° C. and the precipitate is fixed onto #30 glass fiber paper (Schletcher & Schuell) using a Skatron semi- automatic harvester. The filters are then washed with additional 5% TCA containing 1% sodium pyrophosphate, rinsed with 70% aqueous ethanol, dried, and transferred to scintillation vials (6). Each vial receives 2 mls of scintillation cocktail and is counted in a Beckman beta counter.
Calculations for percent inhibition are as follows [formula] References
Compound `CSCCN1C(=O)c2ccccc2Oc2nc(Cl)ccc21` [Example 1, 2-Chloro-5-(methylthioethyl)pyrido[2,3-b][1,4]benzoxazepin-6(5H)-one] has an inhibition at 10 µg/mL of 99%.
`C=CCN1C(=O)c2ccccc2Oc2nc(Cl)ccc21` [Example 2, 5-Allyl-2-chloropyrido[2,3-b][1,4]benzoxazepin-6(5H)-one] showed an inhibition at 10 µg/mL of 96%.
In the case of `CN1C(=O)c2ccccc2Oc2ncccc21` [Example 3, 5-Methylpyrido[2,3-b][1,4]benzoxzepin-6(5H)-one], the inhibition at 10 µg/mL is reported as 30%.
Compound `CCC(C)N1C(=O)c2ccccc2Oc2ncccc21` (stereo not shown) [Example 4, 5-Sec-butylpyrido[2,3-b][1,4]benzoxazepin-6(5H) -one] has an inhibition at 10 µg/mL of 50%.
In the case of `CCN1C(=O)c2cccc(C)c2Oc2ncccc21` [Example 5, 5-Ethyl-10-methylpyrido[2,3-b][1,4]benzoxazepin-6(5H)-one], the inhibition at 10 µg/mL is reported as 83%.
Work on `CN1C(=O)c2cc(N)ccc2Oc2ncccc21` [Example 6, 8-Amino-5-methylpyrido[2,3-b][1,4]benzoxazepin-6(5H)-one] yielded an inhibition at 10 µg/mL of 50%.
`C=C(Cl)CN1C(=O)c2ccccc2Oc2ncccc21` [Example 7, 5-(2-Chloro-2-propen-1-yl)pyrido[2,3-b][1,4]benzoxazepin-6(5H)-one] gave an inhibition at 10 µg/mL of 66%.
For `C=C(C)CN1C(=O)c2ccccc2Oc2ncccc21` [Example 8, 5-(2-Methyl-2-propen-1-yl)pyrido[2,3-b][1,4]benzoxazepin-6(5H)-one], the inhibition at 10 µg/mL was 47%.
With `CC=CCN1C(=O)c2ccccc2Oc2ncccc21` [Example 9, 5-(2-Buten-1-yl)pyrido[2,3-b][1,4]benzoxazepin-6(5H) -one] the inhibition at 10 µg/mL was 39%.
Compound `C=CCN1C(=O)c2cccc(C)c2Oc2ncccc21` [Example 10, 5-Allyl-10-methylpyrido[2,3-b][1,4]benzoxazepin-6(5H)-one] has an inhibition at 10 µg/mL of 84%.
`CCN1C(=O)c2ccc(C)cc2Oc2ncccc21` [Example 11, 5-Ethyl-9-methylpyrido[2,3-b][1,4]benzoxazepin-6(5H)-one] showed an inhibition at 10 µg/mL of 30%.
Work on `CCC(=O)N1C(=O)c2cc(C)ccc2Oc2ncccc21` [Example 12, 8-Methyl-5-propionylpyrido[2,3-b][1,4]benzoxazepin-6(5H)-one] yielded an inhibition at 10 µg/mL of 49%.

Tested on: not listed separately
Test: MTT assay for cellular cytotoxicity
Assay type: cell-based
Details: human, H9 cells, five days, read-out: Cytotoxity Assay EC50
Experimental: In order to roughly assess the cytotoxicity of the compounds of formula I, several were tested in the MTT Cellular Cytotoxicity Assay described below. Compounds having a relatively high EC50 are preferred.
MTT ASSAY FOR CELLULAR CYTOTOXICITY
The MTT [3-(4,5-dimethylthiazol-2yl)-2,5 diphenyl tetrazolium bromide) assay is based on cleavage of tetrazolium bromide by metabolically active cells, resulting in a highly quantitative blue color. This assay has been previously described (1) but has been optimized for the purposes of the testing reported herein.
The H9 cell line (2), an established human lymphoma suspension cell line grown in RPMI 1640 supplemented with 10% fetal bovine serum is used as the target cell line in the assay. Cells (100μl) are plated in microtest plate wells at a concentration of 10^5 cells per ml in the presence of varying concentrations of inhibitor. The cells are incubated at 37° C in a humidified CO2 incubator. Five days later, 20 μl of MTT (5 mg/ml in RPMI 1640, sonicated, 0.2 micron filtered, and stored at 4° C.) is added to each well. After 4 hours additional incubation at 37° 60 μl of Triton-X is added to each well and thoroughly mixed to aid the solubiltzation of the crystals. Absolute ethanol (5μ) is added to remove bubbles, and the mixture is incubated for 30 minutes at 60° C. and immediately read on a plate reader (Dynatech) at a wavelength of 570 nm. […]
For `CSCCN1C(=O)c2ccccc2Oc2nc(Cl)ccc21` [Example 1, 2-Chloro-5-(methylthioethyl)pyrido[2,3-b][1,4]benzoxazepin-6(5H)-one], the CC50 at 120 h was 20 µg/mL (≈ 62.3 µM).
